Test results from PubChem BioAssay (NCI).
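GI50 is the concentration that inhibits growth by half. The concentration for full growth arrest is given as TGI.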

Tests used:
Assay in all cases: NCI tumour cell line growth inhibition, 384-well format
RXF 393 renal = test system: RXF 393 renal
COLO 205 colon = test system: COLO 205 colon
HOP-62 NSCLC = test system: HOP-62 NSCLC
786-0 renal = test system: 786-0 renal
OVCAR-3 ovarian = test system: OVCAR-3 ovarian
HS 578T breast = test system: HS 578T breast
SW-620 colon = test system: SW-620 colon
TK-10 renal = test system: TK-10 renal
T-47D breast = test system: T-47D breast
U251 glioblastoma = test system: U251 glioblastoma
NCI-H322M lung = test system: NCI-H322M lung
LOX IMVI melanoma = test system: LOX IMVI melanoma
NCI-H460 NSCLC = test system: NCI-H460 NSCLC
EKVX NSCLC = test system: EKVX NSCLC
OVCAR-4 ovarian = test system: OVCAR-4 ovarian
CCRF-CEM leukemia = test system: CCRF-CEM leukemia
CAKI-1 renal = test system: CAKI-1 renal
MDA-MB-435 melanoma = test system: MDA-MB-435 melanoma
HCT-15 colon = test system: HCT-15 colon
BT-549 breast = test system: BT-549 breast
MALME-3M melanoma = test system: MALME-3M melanoma
MOLT-4 leukemia = test system: MOLT-4 leukemia
A549 NSCLC = test system: A549 NSCLC
NCI-H522 lung = test system: NCI-H522 lung
SN12C renal = test system: SN12C renal
SK-OV-3 ovarian = test system: SK-OV-3 ovarian
RPMI-8226 leukemia = test system: RPMI-8226 leukemia
NCI-H23 lung = test system: NCI-H23 lung
ACHN renal = test system: ACHN renal
UO-31 renal = test system: UO-31 renal
OVCAR-8 ovarian = test system: OVCAR-8 ovarian
HCC-2998 colon = test system: HCC-2998 colon
MCF7 breast = test system: MCF7 breast
M14 melanoma = test system: M14 melanoma
UACC-257 melanoma = test system: UACC-257 melanoma
SR leukemia = test system: SR leukemia
SNB-19 CNS = test system: SNB-19 CNS
SF-268 CNS = test system: SF-268 CNS
NCI-H226 lung = test system: NCI-H226 lung
UACC-62 melanoma = test system: UACC-62 melanoma
MDA-MB-231 breast = test system: MDA-MB-231 breast
K-562 leukemia = test system: K-562 leukemia
PC-3 prostate = test system: PC-3 prostate
SF-295 CNS = test system: SF-295 CNS
SK-MEL-5 melanoma = test system: SK-MEL-5 melanoma
KM12 colon = test system: KM12 colon
OVCAR-5 ovarian = test system: OVCAR-5 ovarian
NCI/ADR-RES ovarian = test system: NCI/ADR-RES ovarian
SNB-75 CNS = test system: SNB-75 CNS
SF-539 CNS = test system: SF-539 CNS
MDA-MB-468 breast = test system: MDA-MB-468 breast
A498 renal = test system: A498 renal
IGROV1 ovarian = test system: IGROV1 ovarian
HOP-92 NSCLC = test system: HOP-92 NSCLC
DU-145 prostate = test system: DU-145 prostate
SK-MEL-28 melanoma = test system: SK-MEL-28 melanoma
HT29 colon = test system: HT29 colon
HL-60(TB) leukemia = test system: HL-60(TB) leukemia

## CC(CN(C)C)S(=O)(=O)c1ccc(-c2cnc(N)c(C(=O)Nc3ccccc3)n2)cc1 (stereo unspecified)
RXF 393 renal
  GI50: 2.03 µM
  TGI: 10.7 µM
COLO 205 colon
  GI50: 2.25 µM
  TGI: 5.9 µM
HOP-62 NSCLC
  GI50: 2.3 µM
  TGI: 14.1 µM
786-0 renal
  GI50: 0.753 µM
  TGI: 2.66 µM
OVCAR-3 ovarian
  GI50: 3.04 µM
  TGI: 14.2 µM
HS 578T breast
  GI50: 0.837 µM
  TGI: 3.17 µM
SW-620 colon
  GI50: 1.71 µM
  TGI: 3.25 µM
TK-10 renal
  GI50: 0.993 µM
  TGI: 7.61 µM
T-47D breast
  GI50: 9.82 µM
  TGI: 22.2 µM
U251 glioblastoma
  GI50: 2.51 µM
  TGI: 12.1 µM
NCI-H322M lung
  GI50: 1.1 µM
  TGI: 15.5 µM
LOX IMVI melanoma
  GI50: 2.48 µM
  TGI: 11.5 µM
NCI-H460 NSCLC
  GI50: 0.696 µM
  TGI: 6.72 µM
EKVX NSCLC
  GI50: 8.14 µM
  TGI: 31.3 µM
OVCAR-4 ovarian
  GI50: 1.13 µM
  TGI: 4.19 µM
CCRF-CEM leukemia
  GI50: 0.519 µM
  TGI: 1.66 µM
CAKI-1 renal
  GI50: 2.77 µM
  TGI: 14.7 µM
MDA-MB-435 melanoma
  GI50: 3.82 µM
  TGI: 16.1 µM
HCT-15 colon
  GI50: 1.03 µM
  TGI: 2.43 µM
BT-549 breast
  GI50: 0.556 µM
  TGI: 2.69 µM
MALME-3M melanoma
  GI50: 1.81 µM
  TGI: 5.29 µM
MOLT-4 leukemia
  GI50: 0.515 µM
  TGI: 1.62 µM
A549 NSCLC
  GI50: 2.17 µM
  TGI: 27.5 µM
NCI-H522 lung
  GI50: 10.3 µM
  TGI: 22.3 µM
SN12C renal
  GI50: 5.15 µM
  TGI: 20 µM
SK-OV-3 ovarian
  GI50: 2.18 µM
  TGI: 13.1 µM
RPMI-8226 leukemia
  GI50: 1.56 µM
  TGI: 4.48 µM
NCI-H23 lung
  GI50: 1.07 µM
  TGI: 4.51 µM
ACHN renal
  GI50: 0.979 µM
  TGI: 7.41 µM
UO-31 renal
  GI50: 3.64 µM
  TGI: > 100 µM
OVCAR-8 ovarian
  GI50: 3.82 µM
  TGI: 14.9 µM
HCC-2998 colon
  GI50: 0.314 µM
  TGI: 0.937 µM
MCF7 breast
  GI50: 0.844 µM
  TGI: 13.4 µM
M14 melanoma
  GI50: 1.73 µM
  TGI: 10.7 µM
UACC-257 melanoma
  GI50: 1.73 µM
  TGI: 3.35 µM
SR leukemia
  GI50: 0.385 µM
  TGI: 1.4 µM
SNB-19 CNS
  GI50: 4.56 µM
  TGI: 18.5 µM
SF-268 CNS
  GI50: 3.49 µM
  TGI: 12.4 µM
NCI-H226 lung
  GI50: 3.25 µM
  TGI: 12.9 µM
UACC-62 melanoma
  GI50: 2.14 µM
  TGI: 9.84 µM
MDA-MB-231 breast
  GI50: 12.9 µM
  TGI: 36.3 µM
K-562 leukemia
  GI50: 1.89 µM
  TGI: 3.53 µM
PC-3 prostate
  GI50: 5.52 µM
  TGI: 24.4 µM
SF-295 CNS
  GI50: 2.85 µM
  TGI: 9.55 µM
SK-MEL-5 melanoma
  GI50: 2.27 µM
  TGI: 6.06 µM
KM12 colon
  GI50: 2.79 µM
  TGI: 12.3 µM
OVCAR-5 ovarian
  GI50: 3.84 µM
  TGI: 14 µM
NCI/ADR-RES ovarian
  GI50: 3.11 µM
  TGI: 15.1 µM
SNB-75 CNS
  GI50: 9.27 µM
  TGI: > 100 µM
SF-539 CNS
  GI50: 1.14 µM
  TGI: 2.62 µM
MDA-MB-468 breast
  GI50: 0.412 µM
  TGI: 1.34 µM
A498 renal
  GI50: 0.343 µM
  TGI: 1.35 µM
IGROV1 ovarian
  GI50: 1.99 µM
  TGI: 5.27 µM
HOP-92 NSCLC
  GI50: 1.4 µM
  TGI: 10.8 µM
DU-145 prostate
  GI50: 2.9 µM
  TGI: 13.4 µM
SK-MEL-28 melanoma
  GI50: 2.39 µM
  TGI: 6.47 µM
HT29 colon
  GI50: 1.61 µM
  TGI: 3.69 µM
HL-60(TB) leukemia
  GI50: 1.49 µM
  TGI: 2.83 µM
